Converted amounts (≈) assume the structure as drawn. The source made the active and inactive calls. The rule behind the calls is not given here.
Assays:
Staphylococcus aureus [1] = experiment: Antibacterial activity against methicillin resistant Staphylococcus aureus clinical isolate assessed as inhibition of bacterial growth incubated for 24 hrs; format: functional
Staphylococcus aureus [2] = experiment: Antibacterial activity against Staphylococcus aureus clinical isolate assessed as inhibition of bacterial growth incubated for 24 hrs; format: functional
Staphylococcus aureus [3] = experiment: Antibacterial activity against Staphylococcus aureus ATCC 25923 assessed as inhibition of bacterial growth incubated for 24 hrs; format: functional
Staphylococcus aureus [4] = experiment: Antibacterial activity against Staphylococcus aureus ATCC 29213 assessed as inhibition of bacterial growth incubated for 24 hrs; format: functional
Enterococcus faecalis [5] = experiment: Antibacterial activity against Enterococcus faecalis clinical isolate assessed as inhibition of bacterial growth incubated for 24 hrs; format: functional
Klebsiella pneumoniae = experiment: Antibacterial activity against Klebsiella pneumoniae clinical isolate assessed as inhibition of bacterial growth incubated for 24 hrs; format: functional
Escherichia coli [6] = experiment: Antibacterial activity against Escherichia coli clinical isolate assessed as inhibition of bacterial growth incubated for 24 hrs; format: functional
Escherichia coli [7] = experiment: Antibacterial activity against Escherichia coli ATCC 25922 assessed as inhibition of bacterial growth incubated for 24 hrs; format: functional
Pseudomonas aeruginosa [8] = experiment: Antibacterial activity against Pseudomonas aeruginosa clinical isolate assessed as inhibition of bacterial growth incubated for 24 hrs; format: functional
Pseudomonas aeruginosa [9] = experiment: Antibacterial activity against Pseudomonas aeruginosa ATCC 27853 assessed as inhibition of bacterial growth incubated for 24 hrs; format: functional
Acinetobacter baumannii = experiment: Antibacterial activity against Acinetobacter baumannii clinical isolate assessed as inhibition of bacterial growth incubated for 24 hrs; format: functional
Staphylococcus aureus [10] = experiment: Resistance development in methicillin resistant Staphylococcus aureus assessed as fold increase in MIC measured after 20 days relative to control; format: functional; conditions: time 20 day
Pseudomonas aeruginosa [11] = experiment: Resistance development in Pseudomonas aeruginosa assessed as fold increase in MIC measured after 20 days relative to control; format: functional; conditions: time 20 day
Streptococcus pneumoniae = experiment: Antibacterial activity against Streptococcus pneumoniae ATCC 6305 assessed as inhibition of bacterial growth incubated for 24 hrs; format: functional
Streptococcus pyogenes [12] = experiment: Antibacterial activity against Streptococcus pyogenes ATCC 19615 assessed as inhibition of bacterial growth incubated for 24 hrs; format: functional
[13] = test system: Staphylococcus epidermidis; experiment: Antibacterial activity against Staphylococcus epidermidis ATCC 12228 assessed as inhibition of bacterial growth incubated for 24 hrs; format: functional
Staphylococcus aureus [14] = experiment: Antibacterial activity against methicillin-resistant Staphylococcus aureus ATCC 43300 assessed as inhibition of bacterial growth incubated for 24 hrs; format: functional
Staphylococcus aureus [15] = experiment: Antibacterial activity against Staphylococcus aureus ATCC 12600 assessed as inhibition of bacterial growth incubated for 24 hrs; format: functional
Staphylococcus aureus [16] = experiment: Antibacterial activity against Staphylococcus aureus ATCC 6538 assessed as inhibition of bacterial growth incubated for 24 hrs; format: functional
Staphylococcus aureus [17] = experiment: Antibacterial activity against Staphylococcus aureus CMCC(B)26003 assessed as inhibition of bacterial growth incubated for 24 hrs; format: functional
Staphylococcus aureus [18] = experiment: Antibacterial activity against Staphylococcus aureus CMCC(B)26001 assessed as inhibition of bacterial growth incubated for 24 hrs; format: functional
Enterococcus faecium = experiment: Antibacterial activity against Enterococcus faecium ATCC 19434 assessed as inhibition of bacterial growth incubated for 24 hrs; format: functional
Enterococcus faecalis [19] = experiment: Antibacterial activity against vancomycin-resistant Enterococcus faecalis clinical isolate p1-2007226001 assessed as inhibition of bacterial growth incubated for 24 hrs; format: functional
Enterococcus faecalis [20] = experiment: Antibacterial activity against vancomycin-resistant Enterococcus faecalis clinical isolate p1-2007225053 assessed as inhibition of bacterial growth incubated for 24 hrs; format: functional
Streptococcus pyogenes [21] = experiment: Potency index, ratio of norfloxacin MIC to test compound MIC for antibacterial activity against Streptococcus pyogenes ATCC 19615 assessed as inhibition of bacterial growth incubated for 24 hrs; format: functional
Streptococcus pyogenes [22] = experiment: Potency index, ratio of ciprofloxacin MIC to test compound MIC for antibacterial activity against Streptococcus pyogenes ATCC 19615 assessed as inhibition of bacterial growth incubated for 24 hrs; format: functional
Erythrocyte = experiment: Hemolytic activity in human Red blood cells assessed as concentration required for 5% hemolysis measured after 1.5 hrs by absorbance based assay; format: toxicity, cell-based
[23] = Hemolytic activity in human Red blood cells at 32 ug/ml measured after 1.5 hrs by absorbance based assay relative to control; format: toxicity, cell-based, Erythrocyte; conditions: red blood cells (erythrocytes), at 32 µg/mL, read-out: Activity
L02 = experiment: Cytotoxicity against human L02 cells assessed as reduction in cell viability at 0.78 to 25 ug/ml measured after 24 hrs by MTT assay; format: toxicity, cell-based; conditions: l02, 24 h, dose 0.78-25 µg/ml
HUVEC = experiment: Cytotoxicity against HUVEC cells assessed as reduction in cell viability at 0.78 to 25 ug/ml measured after 24 hrs by MTT assay; format: toxicity, cell-based; conditions: human, dose 0.78-25 µg/ml
[24] = Cytotoxicity against HUVEC cells assessed as cell viability at 25 ug/ml measured after 24 hrs by MTT assay relative to control; format: toxicity, cell-based; conditions: human, at 25 µg/mL, read-out: Activity
[25] = Cytotoxicity against human normal Squamous epithelial cell (NOK) assessed as inhibition of cell growth measured after 24 hrs by MTT assay; format: toxicity, cell-based; conditions: normal squamous epithelial cells (NOK)
[26] = Cytotoxicity against human FHC assessed as inhibition of cell growth measured after 24 hrs by MTT assay; format: toxicity, cell-based; conditions: FHC cells
[27] = Cytotoxicity against human FHC assessed as cell viability at 20 ug/ml measured after 24 hrs by MTT assay relative to control; format: toxicity, cell-based; conditions: FHC cells, at 20 µg/mL, read-out: Activity
Staphylococcus aureus [28] = experiment: Resistance development in methicillin resistant Staphylococcus aureus assessed as increase in MIC measured after 20 days; format: functional, organism-based; conditions: time 20.0 day
Pseudomonas aeruginosa [29] = experiment: Resistance development in Pseudomonas aeruginosa assessed as increase in MIC measured after 20 days; format: functional, organism-based; conditions: time 20.0 day
Calf thymus DNA [30] = experiment: Binding affinity to calf thymus DNA assessed as DNA-compound complex formation by measuring hypochromism at 0 to 2.3 x 10^-8mol/L by UV absorption spectra based analysis; format: nucleic-acid assay; conditions: Bos taurus; dose 0-2.3 10^-8mol/L
Calf thymus DNA [31] = experiment: Competitive binding affinity to calf thymus DNA assessed as displacement of neutral red from DNA-neutral red complex by measuring reduction in absorbance at 540 nm at 0 to 2.1x10^-8 mol/L by UV absorption spectroscopy; format: nucleic-acid assay; conditions: Bos taurus; dose 0-2.1 10^-8mol/L
Calf thymus DNA [32] = experiment: Binding affinity to calf thymus DNA assessed as DNA-compound complex formation by measuring increase in absorption of DNA at 260 nm at 0 to 2.3 x 10^-8mol/L by UV absorption spectra based analysis; format: nucleic-acid assay; conditions: Bos taurus; dose 0-2.3 10^-8mol/L
Calf thymus DNA [33] = experiment: Binding affinity to calf thymus DNA assessed as disruption of DNA confirmation by measuring blue shift at 0 to 2.3 x 10^-8mol/L by UV absorption spectra based analysis; format: nucleic-acid assay; conditions: Bos taurus; dose 0-2.3 10^-8mol/L

## NC1CCN(c2c(F)cc3c(=O)c(C(=O)O)cn(C4CC4)c3c2Cl)C1 (stereo unspecified) [CLINAFLOXACIN]
Staphylococcus aureus [1]
  MIC: 1 µg/mL (≈ 2.73 µM)
Staphylococcus aureus [2]
  MIC: 0.5 µg/mL (≈ 1.37 µM)
Staphylococcus aureus [3]
  MIC: 0.5 µg/mL (≈ 1.37 µM)
Staphylococcus aureus [4]
  MIC: 0.5 µg/mL (≈ 1.37 µM)
Enterococcus faecalis [5]
  MIC: 4 µg/mL (≈ 10.9 µM)
Klebsiella pneumoniae
  MIC: 0.5 µg/mL (≈ 1.37 µM)
Escherichia coli [6]
  MIC: 0.25 µg/mL (≈ 0.683 µM)
Escherichia coli [7]
  MIC: 0.25 µg/mL (≈ 0.683 µM)
Pseudomonas aeruginosa [8]
  MIC: 0.5 µg/mL (≈ 1.37 µM)
Pseudomonas aeruginosa [9]
  MIC: 0.5 µg/mL (≈ 1.37 µM)
Acinetobacter baumannii
  MIC: 0.5 µg/mL (≈ 1.37 µM)
Staphylococcus aureus [10]
  fold change (FC): 8
Pseudomonas aeruginosa [11]
  fold change (FC): 16

## N#CCc1cc2c(cc1F)c(=O)c(C(=O)O)cn2Cc1ccccc1Cl
Staphylococcus aureus [1]
  MIC: 256 µg/mL (≈ 690 µM)
Staphylococcus aureus [2]
  MIC: 256 µg/mL (≈ 690 µM)
Staphylococcus aureus [3]
  MIC: 0.25 µg/mL (≈ 0.674 µM)
Staphylococcus aureus [4]
  MIC: 0.25 µg/mL (≈ 0.674 µM)
Enterococcus faecalis [5]
  MIC: 256 µg/mL (≈ 690 µM)
Klebsiella pneumoniae
  MIC: 2 µg/mL (≈ 5.39 µM)
Escherichia coli [6]
  MIC: 0.25 µg/mL (≈ 0.674 µM)
Escherichia coli [7]
  MIC: 0.25 µg/mL (≈ 0.674 µM)
Pseudomonas aeruginosa [8]
  MIC: 0.25 µg/mL (≈ 0.674 µM)
Pseudomonas aeruginosa [9]
  MIC: 0.5 µg/mL (≈ 1.35 µM)
Acinetobacter baumannii
  MIC: 0.5 µg/mL (≈ 1.35 µM)
Streptococcus pneumoniae
  MIC: 16 µg/mL (≈ 43.2 µM)
Streptococcus pyogenes [12]
  MIC: 0.25 µg/mL (≈ 0.674 µM)
[13]
  MIC: 0.25 µg/mL (≈ 0.674 µM)
Staphylococcus aureus [14]
  MIC: 4 µg/mL (≈ 10.8 µM)
Staphylococcus aureus [15]
  MIC: 128 µg/mL (≈ 345 µM)
Staphylococcus aureus [16]
  MIC: 4 µg/mL (≈ 10.8 µM)
Staphylococcus aureus [17]
  MIC: 0.125 µg/mL (≈ 0.337 µM)
Staphylococcus aureus [18]
  MIC: 0.25 µg/mL (≈ 0.674 µM)
Enterococcus faecium
  MIC: 4 µg/mL (≈ 10.8 µM)
Enterococcus faecalis [19]
  MIC: 64 µg/mL (≈ 173 µM)
Enterococcus faecalis [20]
  MIC: 128 µg/mL (≈ 345 µM)
Streptococcus pyogenes [21]
  Ratio: 128
Streptococcus pyogenes [22]
  Ratio: 64
Erythrocyte
  HC5: 64 µg/mL
[23]
  hemolysis at 1.5 h, 32 ug/ml: 4%
L02
  Activity: Non-Toxic
HUVEC
  Activity: Non-Toxic
[24]
  viability at 24 h, 25 ug/ml: > 90%
[25]
  IC50 at 24 h: 1.38 µg/mL (≈ 3.72 µM)
[26]
  IC50 at 24 h: 141 µg/mL (≈ 380 µM)
[27]
  viability at 24 h, 20 ug/ml: > 80%
Staphylococcus aureus [28]
  Activity: inactive
Pseudomonas aeruginosa [29]
  Activity: inactive
Calf thymus DNA [30]
  Activity: Active
Calf thymus DNA [31]
  Activity: Active
Calf thymus DNA [32]
  Activity: Active
Calf thymus DNA [33]
  Activity: Active

From ChEMBL document CHEMBL5506059, “Cyanomethylquinolones as a New Class of Potential Multitargeting Broad-Spectrum Antibacterial Agents” (J Med Chem, 2024)
